In patent publication US10596152B2, “Selenium containing KGA/GDH dual inhibitors and the applications thereof” (HANGZHOU GAMMA BIOTECH CO., LTD., priority 2015, dated 2020):
“Also recorded” adds a separate entry of the source. Where two headings read alike, the source gives them in different places.

Experiments:
L2 (Normal cell) = assay: Growth inhibition of L2 normal cells; assay type: cell-based
Protocol: (§1) Tumor cells (1000 cells per well) which were first treated with the corresponding compound for 3 days, and then EZMTT detection reagents were added measure the cell growth.

T24 (Bladder cancer) = assay: Inhibition of growth of tumor cells, T24 bladder cancer; assay type: cell-based
Protocol: as §1

PC12 cells = assay: Protection of PC12 nerve cells under OGD (hypoxia-ischemia); assay type: cell-based; conditions: for Protection of PC12 cells under OGD: OGD hypoxia-ischemia condition
Description: Then observed the growth of cellular neurite growth or neural synapse.

KGA [1] = target: T1, KGA (Homo sapiens, UniProt O94925); assay: Binding to immobilized KGA by molecular interaction apparatus (ForteBio); conditions: KGA immobilized on ForteBio chip
T1 sequence (O94925 55-669): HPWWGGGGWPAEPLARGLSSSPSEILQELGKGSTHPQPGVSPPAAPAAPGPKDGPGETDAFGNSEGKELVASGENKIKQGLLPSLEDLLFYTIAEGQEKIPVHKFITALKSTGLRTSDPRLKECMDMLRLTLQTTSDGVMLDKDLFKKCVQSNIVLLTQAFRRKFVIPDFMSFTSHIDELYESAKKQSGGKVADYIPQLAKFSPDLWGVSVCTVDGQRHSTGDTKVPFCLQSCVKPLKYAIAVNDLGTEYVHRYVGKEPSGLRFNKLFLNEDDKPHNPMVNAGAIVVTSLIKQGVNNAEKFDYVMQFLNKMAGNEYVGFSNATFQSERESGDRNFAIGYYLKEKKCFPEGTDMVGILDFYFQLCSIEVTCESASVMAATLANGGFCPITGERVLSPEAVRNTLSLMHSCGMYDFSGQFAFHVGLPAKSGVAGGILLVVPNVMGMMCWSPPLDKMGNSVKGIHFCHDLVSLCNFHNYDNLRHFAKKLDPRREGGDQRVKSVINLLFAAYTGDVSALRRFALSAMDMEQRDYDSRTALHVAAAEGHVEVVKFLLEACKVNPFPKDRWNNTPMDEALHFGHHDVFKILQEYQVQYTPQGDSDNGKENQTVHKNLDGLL
Description: We suspected that ebselen may not inhibit glutaminase. […] Therefore, based on the crystal structure of the allosteric site of glutaminase, we synthesized a series of new symmetric and asymmetric ebselen derivatives with the aim to make an ebselen derived KGA inhibitor. In the derivatives, the benzene ring at the 2-position of the original ebselen molecule was replaced by a straight-chain or branched alkyl substituent containing at least one carbon atom, or a long chain containing thioether, or a smaller cycloalkyl group, and the newly obtained derivatives are effective in binding to the allosteric site of glutaminase. […] Moreover, these inhibitors that bind the allosteric site of glutaminase had good selectivity and higher potency for inhibition of tumor cell growth (<100 nM), and no damage to normal cells (10 μM). These inhibitors also had significant activity in an immunodeficient mouse model with no toxicity. These inhibitors had good inhibitory activity for various types of glutamine-dependent cancer cells (80-90%), especially urinary system tumors. The binding diagram of GAC tetramers and BPTES is shown in FIG. 1, wherein “mark 1” is the active site of substrate binding; and “mark 2” is an allosteric site for BPTES binding.
Our Papers published are Anal. Chem. 2017, 89: 1689, ACS Chemical Biology, 2017, 12:3003

JC82 = assay: Inhibition of growth of tumor cells, JC82; assay type: cell-based; conditions: 72 h, read-out: IC50, JC82
Protocol: as §1

glutaminase = target: T2, glutaminase (Homo sapiens, UniProt O94925); conditions: reported; read-out: Glutaminase inhibitor IC50; cited from earlier work
T2 sequence (O94925 55-669): T1 sequence (O94925 55-669)

A549 = assay: Inhibition of growth of tumor cells, A549; assay type: cell-based; conditions: Homo sapiens, read-out: IC50, A549
Protocol: as §1

PC12 = assay: Inhibition of growth of tumor cells, PC12; assay type: cell-based; conditions: Rattus norvegicus, PC-12, 72 h, read-out: IC50, PC12
Protocol: as §1

[2] = tested on: glutamine dependent cancer cell; conditions: reported; read-out: Inhibiting glutamine dependent cancer cell growth IC50; cited from earlier work
Caki = assay: Inhibition of growth of tumor cells, Caki; assay type: cell-based; conditions: 72 h, read-out: IC50, Caki
Protocol: as §1

PC3 = assay: Inhibition of growth of tumor cells, PC3; assay type: cell-based; conditions: Homo sapiens, PC-3, 72 h, read-out: IC50, PC3
Protocol: as §1

KGA [3] = target: T1, KGA; assay: Inhibition of KGA (glutaminase); assay type: biochemical
TrxR = conditions: reported; cited from earlier work
normal cells [4] = assay: Toxicity to normal cells
A549 tumor = assay: Subcutaneous A549 tumor model in nude mice; assay type: in vivo; conditions: immune deficient mice, 1 mg/kg subcutaneously near tumor daily, 7 days, FIG. 5
Protocol: A549 tumor cells (1,000,000) were inoculated in nude mice, and the tumor size was 10 mm×10 mm in 24th to 27th day. Then compound hexane-(3,3′-dimethyl) thioether selen in PBS solution (200 μl) was injected subcutaneously every day near the tumor with the dosage of 1 mg/kg.

T24 tumor = assay: Subcutaneous T24 tumor model in nude mice; assay type: in vivo; conditions: immune deficient mice, 1 mg/kg subcutaneously near tumor daily, 7 days, FIG. 6
Protocol: T24 tumor cells (1,000,000) were inoculated in nude mice, and the tumor size was 10 mm×10 mm in 24th to 27th day. Then compound hexane-(3,3′-dimethyl) thioether selen in PBS solution (200 μl) was injected subcutaneously every day near the tumor with the dosage of 1 mg/kg.

normal cells [5] = tested on: normal cells
[6] = bladder cancer cell line table, read-out: L2 (Normal cell) IC50
[7] = bladder cancer cell line table, read-out: T24 (Bladder cancer) IC50
[8] = 72 h, read-out: IC50, L2 (Normal)
[9] = Homo sapiens, T-24, 72 h, read-out: IC50, T24

1,6- tert butyl carbonate hexamethylendiamineselen
IC50 (L2 (Normal cell); [6]): > 10 µM
IC50 (T24 (Bladder cancer); [7]): 10 µM
Protection of PC12 cells under OGD (PC12 cells): <100 nM

O=c1c2ccccc2[se]n1-c1ccccc1 [Ebselen, 2-phenylbenzoisoselenazol-3-one, reference compound]
Binding to KGA / glutaminase (KGA [1]): not bound to the KGA; also recorded: cannot directly combine toglutaminase
IC50 (JC82; JC82 cells, 3 days treatment): > 10 µM
IC50 (glutaminase): 0.009 µM
IC50 (A549; 72 h, A549 cells, 3 days treatment): > 10 µM
IC50 (PC12; PC12 cells, 3 days treatment): > 10 µM
IC50 [2]: 20 µM
IC50 (L2 (Normal cell); 72 h, L2 normal cells, 3 days treatment, read-out: IC50, L2 (Normal)): > 10 µM
IC50 (L2 (Normal cell); [6]): > 10 µM
IC50 (T24 (Bladder cancer); Homo sapiens, T-24, 72 h, T24 cells, 3 days treatment, comparison with parent nucleus, read-out: IC50, T24): > 10 µM
IC50 (T24 (Bladder cancer); [7]): > 10 µM
IC50 (Caki; Caki cells, 3 days treatment): > 10 µM
IC50 (PC3; PC3 cells, 3 days treatment): > 10 µM
Inhibition of KGA (KGA [3]): do not inhibit KGA
Inhibition of TrxR (TrxR): strong inhibitors of TrxR
Toxicity to normal cells (normal cells [4]): toxic to the normal cells
Protection of PC12 cells under OGD (PC12 cells): 1000 nM

O=c1c2ccccc2[se]n1CCCCCCn1[se]c2c(F)cccc2c1=O [Hexane - (2'-fluoro) selen, Hexane-(2′-fluoro) selen]
IC50 (L2 (Normal cell); read-out: L2 (Normal cell) IC50): > 10 µM
IC50 (T24 (Bladder cancer); read-out: T24 (Bladder cancer) IC50): 0.2 µM
Protection of PC12 cells under OGD (PC12 cells): <100 nM

O=c1c2c(F)cccc2[se]n1CCCCCCn1[se]c2cccc(F)c2c1=O [Hexane-(2,2'-difluoro) selen, Hexane-(2,2′-difluoro) selen]
IC50 (JC82): 2 µM
IC50 (A549; A549, 72 h): 0.5 µM
IC50 (PC12): 5 µM
IC50 (L2 (Normal cell); [8]): > 10 µM
IC50 (T24 (Bladder cancer); [9]): 0.01 µM
IC50 (Caki): 1 µM
IC50 (PC3): 2 µM

Cc1cccc2[se]n(CCCCCCn3[se]c4cccc(C)c4c3=O)c(=O)c12 [Hexane-(3,3'-dimethyl) selen, Hexane-(3,3′-dimethyl) selen]
Binding to KGA / glutaminase (KGA [1]): distinct levels of combination with KGA enzyme
IC50 (JC82): 5 µM
IC50 (A549; A549, 72 h): 0.5 µM
IC50 (PC12): 5 µM
IC50 (L2 (Normal cell); [8]): > 10 µM
IC50 (T24 (Bladder cancer); [9]): 0.2 µM
IC50 (Caki): 1 µM
IC50 (PC3): 2 µM

O=c1c2ccccc2[se]n1CCCSCCCn1[se]c2ccccc2c1=O [Thioether selen]
IC50 (JC82): 5 µM
IC50 (A549; A549, 72 h): 0.5 µM
IC50 (PC12): 5 µM
Inhibition of growth of A549 tumor (A549 tumor): inhibition of the growth of the A549 tumor
IC50 (L2 (Normal cell); [8]): > 10 µM
IC50 (T24 (Bladder cancer); [9]): 0.5 µM
IC50 (Caki): 1 µM
IC50 (PC3): 2 µM
Protection of PC12 neuronal cells under OGD condition (PC12 cells; words, FIG. 7): protection of PC12 neuronal cells
Inhibition of growth of T24 tumor (T24 tumor): inhibition of the growth of the T24 tumor cells

O=c1c2ccccc2[se]n1CCn1[se]c2ccccc2c1=O [ethylselen]
Toxicity to normal cells (normal cells [5]): toxic to the normal cells
Inhibition of KGA (KGA [3]): do not inhibit KGA
Inhibition of TrxR (TrxR): strong inhibitors of TrxR
